Data: US5204341A, “1-arylsulphonyl-2-pyrrolidone derivatives, their preparation process and the new intermediates obtained, their use as medicaments and the pharmaceutical compositions containing them” (priority 1990, dated 1993)
Like-named read-outs stand apart in the source and are kept apart here.

Assays:
[1] = test system: barium chloride-induced contractions of isolated ileum; experiment: Antagonism of barium chloride-induced contractions of isolated guinea-pig ileum; format: cell-based; conditions: read-out: Antagonistic to BaCl2, IC50
Protocol: (§1) The interaction of the compounds with different receptors was evaluated on the isolated ileum of a guinea-pig according to the following method.
(§2) 2.5-3 cm segments of the guinea-pigs, ileum were washed and immediately suspended in a bath containing 10 ml of a Tyrode solution at 37° C. and aerated with a mixture of oxygen (95%) and carbon dioxide (5%). After a stabilization period of at least 30 minutes, the contractions are recorded, maintaining the preparation under constant pressure of 1 g, using a sensor connected to a polygraph. […] The following dose was only added to the bath after the preparation returned to its base line. Arecoline was used as reference product. The antagonistic action was evaluated on contractions induced by acetylcholine (1×10^-6 M), histamine (1×10^-5 M) and barium chloride (2×10^-5 M). […] The contact time before adding the agonist was one minute.
(§3) For each compound the dose-response curves are obtained with 4 to 6 different concentrations and 3 to 5 independent tests. The agonistic activity is expressed by pD2 (negative logarithm of the dose which produces 50% of the maximum effect). The antagonistic activity is expressed by IC50 (concentration inhibiting 50% of the maximum response).

[2] = test system: acetylcholine-induced contractions of isolated ileum; experiment: Antagonism of acetylcholine-induced contractions of isolated guinea-pig ileum; format: cell-based; conditions: read-out: Antagonistic to ACh, IC50
Protocol: as §1, §2, §3

Muscarinic receptor 2 = experiment: Affinity for the muscarinic M2 receptor ([^3 H]quinuclidinyl benzylate binding, rat brain); conditions: 0.3 nM ^3 H quinuclidinyl benzylate, 60 min, 25° C., pH 7.5
Protocol: The preparation is carried out from the brains of male rats weighing 150 to 200 g (Iffa Credo).
The brains are ground up (Teflon-glass) in a 0.32 M sucrose solution. The homogenate is centrifuged for 10 minutes at 1000 g (0-4° C.).
The supernatant obtained is collected and centrifuged again at 30000 g for 15 minutes (0-4° C.).
The deposit is put in suspensions in a 50 mM Tris pH 7.5 buffer and the new homogenate is centrifuged again at 30000 g for 15 minutes (0-4° C.).
After elimination of the supernatants, the deposits can be used immediately or kept for up to one month at -30° C.
For one experiment the deposits are firstly defrosted, if necessary, at ambient temperature and put in suspension using a Dounce grinder in a 50 mM Tris pH 7.5 buffer. 2 ml aliquots are incubated for 60 minutes at 25° C. in the presence of 0.3 nM of
^3 H quinuclidinyl benzylate either on its own, or with the product to be tested, or with benzatropine at 10^-5 M in order to determine the non-specific fixed radioactivity.
At the end of the incubation, the tubes of incubate are cooled down to 4° C. and the incubate is filtered rapidly on Whatman GF/C filters. The filters are rinsed with 3×5 ml of 50 mM Tris pH 7.5 buffer then measurements are carried out by liquid scintillation (Henry I Yamamura, Solomon H. Synder, Proc. Nat. Acad Sc. (1974) 71, No. 5, 1725-1729).
(§4) The results are expressed in IC50 (concentration necessary to inhibit 50% of the fixed specific radio-activity).

isolated ileum = experiment: Agonistic action on isolated guinea-pig ileum; format: cell-based; conditions: negative logarithm of the dose producing 50% of the maximum effect; for EC50: Cavia porcellus, read-out: Agonistic action pD2 (converted)
Protocol: as §1, §2, §3

Muscarinic receptor 1 = molecular target: T1, Muscarinic receptor 1 (Rattus norvegicus, UniProt P08482); experiment: Affinity for the muscarinic M1 receptor ([^3 H]pirenzepine binding, rat cortex); conditions: 0.25 nM ^3 H pirenzepine, 60 min, 25° C., pH 7.4
T1 construct: cortex removed from the brains of male rats weighing 150 to 200 g (Iffa Credo); from tissue; host or cells: rat cerebral cortex homogenate
T1 sequence (P08482 1-460): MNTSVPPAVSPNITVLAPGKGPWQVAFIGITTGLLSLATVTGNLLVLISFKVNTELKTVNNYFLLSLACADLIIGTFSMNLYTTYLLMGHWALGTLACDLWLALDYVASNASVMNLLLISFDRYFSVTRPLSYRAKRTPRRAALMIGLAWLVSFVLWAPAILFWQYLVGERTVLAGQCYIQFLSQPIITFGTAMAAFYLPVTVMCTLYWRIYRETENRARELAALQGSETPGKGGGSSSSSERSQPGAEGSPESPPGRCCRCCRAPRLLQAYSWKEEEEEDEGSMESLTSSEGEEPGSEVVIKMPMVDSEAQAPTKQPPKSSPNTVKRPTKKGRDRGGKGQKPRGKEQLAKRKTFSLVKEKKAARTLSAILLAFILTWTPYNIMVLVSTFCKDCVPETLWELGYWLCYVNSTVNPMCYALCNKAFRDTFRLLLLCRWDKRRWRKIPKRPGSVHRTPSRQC
Protocol: Its preparation is carried out from cortex removed from the brains of male rats weighing 150 to 200 g (Iffa Credo) ground up in a Polytron in a 10 mM Na/K pH 7.4 buffer. After incubation (0.5 ml aliquots of homogenate) for 60 minutes at 25° C. in the presence of 0.25 nM of ^3 H pirenzepine either on its own, or with the product to be tested, or with an excess of pirenzepine at 10^-5 M (in order to determine the non-specific fixed radioactivity), the incubates are cooled down and filtered.
The filtration is carried out on Whatman GF/C filters prewashed in a 0.05% polyethylene imine solution. The filters are rinsed with 3×5 ml of 10 mM Na/K pH 7.4 phosphate buffer, then measurements are carried out by liquid scintillation.
as §4

[3] = test system: histamine-induced contractions of isolated ileum; experiment: Antagonism of histamine-induced contractions of isolated guinea-pig ileum; format: cell-based; conditions: histamine 1×10^-5 M, contact time one minute, 37° C., read-out: Antagonistic to Histam., IC50
Protocol: as §1, §2, §3

[4] = test system: cholinomimetic effects induced by carbachol; experiment: In vivo anti-cholinergic action: inhibition of cholinomimetic effects induced by carbachol in mice; design: species or system CD1 male mice; conditions: for ED50 / ED (1 degree C): Mus musculus, ip, 0.5 h; for ED (1 degree C): rectal temperature, read-out: Dose changing body temperature (hypothermic effect of carbachol) by 1° C.
Protocol: The anti-cholinergic activity of the compounds was determined by evaluating the capacity to inhibit the cholino-mimetic effects induced by carbachol. Atropine sulphate was used as reference product.
CD1 male mice weighing 25 to 30 g are used. They are divided into groups of 6 animals and treated by intraperi-toneal route at scalar doses of the products or 0.25% Methocel for the controls. 12 animals are used for each dose. 30 minutes after the administration of the compounds, 1 mg/kg of carbachol, dissolved in physiological serum, was injected into the mice by sub-cutaneous route.
Each animal was examined 30 minutes after the injection of carbachol to evaluate the presence of diarrhoea, salivation and weeping; the body temperature was also measured using a thermocouple inserted 1.5 cm inside the rectum.
For each compound, we have determined the dose which can inhibit, in 50% of the animals, the appearance of cholinomimetic symptoms induced by carbachol and […] the hypothermic effect induced by the cholinergic agent by 1° C.

[5] = Cavia porcellus, barium chloride 2×10^-5 M, contact time one minute, 37° C.
[6] = Cavia porcellus, acetylcholine 1×10^-6 M, contact time one minute, 37° C.
[7] = i.p., 30 min before carbachol 1 mg/kg s.c., read-out: Dose inhibiting diarrhoea in 50% of the animals
[8] = i.p., 30 min before carbachol 1 mg/kg s.c., read-out: Dose inhibiting salivation in 50% of the animals
[9] = i.p., 30 min before carbachol 1 mg/kg s.c., read-out: Dose inhibiting weeping in 50% of the animals
[10] = i.p., 30 min before carbachol 1 mg/kg s.c.

Row | Compound | IC50 [1, 5] | IC50 [2, 6] | IC50 (Muscarinic receptor 2) | EC50 (isolated ileum) | IC50 (Muscarinic receptor 1) | IC50 ([3]; Cavia porcellus) | further results
1 | CCN(CC)c1ccc(S(=O)(=O)N2CC(O)CC2=S)cc1 (stereo not shown) [Example 3, 1-[[4-(diethylamino)-phenyl]-sulphonyl]-4-hydroxy-2-pyrrolidine thione] | > 10 µM | 3000 nM | > 5 µM | > 100 µM | 370 nM | > 10 µM | –
2 | 1-[[4-(dimethylamino)-phenyl]-sulphonyl]-4-(2,2-dimethyl-1-oxo-propoxy)-2-pyrrolidinone [Example 2] | – | – | > 5 µM | – | 720 nM | – | IC50 ([1]; barium chloride 2×10^-5 M, contact time one minute, 37° C.): > 10 µM; IC50 ([2]; acetylcholine 1×10^-6 M, contact time one minute, 37° C.): 5500 nM; Agonistic action pD2 (isolated ileum): < 4; IC50 [3]: > 10 µM
3 | O=S(=O)(c1ccc(N2CCCCC2)cc1)N1CC(O)CC1=S (stereo not shown) [Example 5] | > 10 µM | 1400 nM | > 5 µM | > 100 µM | 170 nM | > 10 µM | ED50 [4, 7]: 6 mg/kg; ED50 [4, 8]: 50 mg/kg; ED50 [4, 9]: > 50 mg/kg; ED (1 degree C) [4, 10]: 25 mg/kg; selectivity of in vivo anticholinergic action (in words) ([4]; contrary to atropine): selective anticholingeric action at the level of the intestinal musculature
4 | COc1ccc(Cc2nccc3cc(OC)c(OC)cc23)cc1OC [Papaverine, papaverine, reference compound] | – | – | – | – | – | – | IC50 ([1]; Cavia porcellus): 45 µM
5 | O=C1CC(O)CN1S(=O)(=O)c1ccc(N2CCCCCC2)cc1 (stereo not shown) [Example 6, 1-[[4-(hexahydro-1H-azepin-1-yl)-phenyl]-sulphonyl]-4-hydroxy-pyrrolidinon] | 2.5 µM | 110 nM | – | > 100 µM | 62 nM | > 10 µM | ED50 [4, 7]: 12 mg/kg; ED50 [4, 8]: > 50 mg/kg; ED50 [4, 9]: > 50 mg/kg; ED (1 degree C) [4, 10]: 50 mg/kg
6 | CCN(CC)c1ccc(S(=O)(=O)N2CC(O)CC2=O)cc1 (stereo not shown) [Example 1, 1-[[4-(diethylamino)-phenyl]sulphonyl]-4-hydroxy-2-pyrrolidinone] | > 10 µM | 860 nM | > 5 µM | > 100 µM | 370 nM | > 10 µM | –
7 | O=C1CC(O)CN1S(=O)(=O)c1ccc(N2CCCCC2)cc1 (stereo not shown) [Example 4, 4-hydroxy-1-[[4-(1-piperidinyl)-phenyl]-sulphonyl]-2-pyrrolidinone] | 2.5 µM | 1200 nM | 10 µM | > 100 µM | 560 nM | > 10 µM | –
8 | CN1[C@@H]2CC[C@H]1C[C@@H](OC(=O)C(CO)c1ccccc1)C2 (stereo partly shown) [Atropine, reference compound] | – | – | – | – | – | – | IC50 ([2]; Cavia porcellus): 9.5 nM; ED50 ([4]; read-out: Dose inhibiting diarrhoea in 50% of the animals): 0.04 mg/kg; ED50 ([4]; read-out: Dose inhibiting salivation in 50% of the animals): 0.06 mg/kg; ED50 ([4]; read-out: Dose inhibiting weeping in 50% of the animals): 0.05 mg/kg
9 | COC(=O)C1=CCCN(C)C1 [Arecoline, reference compound] | – | – | – | 0.209 µM | – | – | –
10 | O=S(=O)(c1ccc(N2CCCCCC2)cc1)N1CC(O)CC1=S (stereo not shown) [Example 7, 1-[[4-(hexahydro-1H-azepin-1-yl)-phenyl]-sulphonyl]-4-hydroxy pyrrolidine thione] | 3.6 µM | 510 nM | – | > 100 µM | 83 nM | > 10 µM | ED50 [4, 7]: 5 mg/kg; ED50 [4, 8]: 50 mg/kg; ED50 [4, 9]: > 50 mg/kg; ED (1 degree C) [4, 10]: 20 mg/kg
11 | C[N+](C)(C)CCOC(N)=O [Carbochol, carbachol, reference compound] | – | – | – | – | – | – | decrease of the rectal temperature ([4]; 1 mg/kg s.c., control mice): about 2.5 °C; induction of diarrhoea, salivation and weeping ([4]; 1 mg/kg s.c., control mice): induced diarrhoea, salivation and weeping in all the control mice
